By inhibition is commonly meant the drop in the measured response relative to a control, in per cent.

The target in the first experiment is T1, Human Recombinant Matriptase 2 (Homo sapiens, UniProt Q8IU80).
T1 construct: purchased Enzo Life Sciences (an in-house preparation was also used) ALX-201-752-1
T1 sequence (Q8IU80 1-811): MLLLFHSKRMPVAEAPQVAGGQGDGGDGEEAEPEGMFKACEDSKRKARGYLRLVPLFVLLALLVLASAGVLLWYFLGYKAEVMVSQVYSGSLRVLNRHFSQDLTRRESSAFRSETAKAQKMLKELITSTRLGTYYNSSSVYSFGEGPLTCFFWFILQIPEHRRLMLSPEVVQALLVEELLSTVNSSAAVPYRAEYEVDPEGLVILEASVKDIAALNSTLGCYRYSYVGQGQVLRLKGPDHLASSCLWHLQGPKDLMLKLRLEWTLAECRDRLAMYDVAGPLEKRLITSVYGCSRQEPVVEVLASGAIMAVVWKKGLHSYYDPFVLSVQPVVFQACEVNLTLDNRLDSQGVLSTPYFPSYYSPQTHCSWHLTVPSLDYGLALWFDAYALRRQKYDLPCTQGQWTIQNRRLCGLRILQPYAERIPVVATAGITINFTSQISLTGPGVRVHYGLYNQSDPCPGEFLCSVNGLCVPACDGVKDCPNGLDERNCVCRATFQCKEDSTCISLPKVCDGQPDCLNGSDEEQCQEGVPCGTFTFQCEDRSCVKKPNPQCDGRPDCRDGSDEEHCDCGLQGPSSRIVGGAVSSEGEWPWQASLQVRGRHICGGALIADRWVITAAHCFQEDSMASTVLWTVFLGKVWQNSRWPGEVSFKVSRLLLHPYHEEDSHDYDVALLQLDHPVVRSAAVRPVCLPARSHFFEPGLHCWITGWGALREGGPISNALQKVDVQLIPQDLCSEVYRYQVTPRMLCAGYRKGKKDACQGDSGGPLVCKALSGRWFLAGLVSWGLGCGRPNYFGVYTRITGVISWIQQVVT
Kind of experiment: Matriptase 2 fluorescence based inhibition assay, Method B (50 mM TRIS pH 7.5, 150 mM NaCl, 0.01% gelatin). Type of experiment: biochemical. The conditions noted are these: 1 uM compound; Assay Used = B. The procedure: Test compounds were evaluated for their potential to inhibit Human Recombinant Matriptase 2 (in-house and commercial protein from Enzo Life Sciences—cat log -ALX-201-752-1) using fluorescence based assay. The concentration of Recombinant Matriptase 2 and the substrate used in the assay was: 7 nM (commercial) and 15 nM (Inhouse Matriptase 2) and 100 μM (Boc-Gln-Ala-Arg-7-amido-4-methyl coumarin hydrobromide—Cat log: B4153-Sigma and I-1550 from Bachem) respectively. The assay buffer used was 50 mM TRIS pH 7.5, 150 mM NaCl, 0.01% gelatin (G1393 Sigma). The assay was performed using 384 well black flat bottom plate from grenier (Cat log: 781076) at 25° C. The enzyme and compound preincubated for 30 mins, plate was read 60 mins after substrate addition at wavelength Ex: 360/Em:480 nm. The final assay volume of was 20 μl. Stock solution of compounds were initially prepared in DMSO and appropriate dilutions were made for screening and IC50 determination (final DMSO conc in the assay was 1%). All the measurements were carried out using the Spectramax M5, Molecular devices. The compounds were screened at 1 and 10 μM concentration and IC50 was determined for the interested compounds.
To determine IC50 values, dose response curves were generated by plotting percentage inhibition as a function of inhibitor concentration and the data was fitted to sigmoidal non-linear regression equation (variable slope) using Graph Pad prism software V7.
Consider `CC(C)(C)OC(=O)N[C@H]1CC[C@H](NC(=O)c2cc3ccc(C(=N)N)cc3n2Cc2ccc3ccccc3c2)CC1` [Compound I-402, tert-butyl ((1r,4r)-4-(6-carbamimidoyl-1-(naphthalen-2-ylmethyl)-1H-indole-2-carboxamido)cyclohexyl) carbamate], for which the “Mar-2 % inhibition at 1 uM” value is “A (A represents 0%≤I≤25%)”.

On to `N=C(N)c1ccc2cc(C(=O)O)n(-c3ccc4ccccc4c3)c2c1` [Compound I-488, 6-carbamimidoyl-1-(naphthalen-2-yl)-1H-indole-2-carboxylic Acid], for which the “Mar-2 % inhibition at 1 uM” value is reported as “A (A represents 0%≤I≤25%)”.

The same experiment, now with this note: 1 uM compound; Assay Used = B (Method B); read-out: Mar-2 % inhibition at 1 uM.
With `N=C(N)c1ccc2cc(C(=O)OCCNC(N)=O)n(Cc3cccc4ccccc34)c2c1` [Compound I-597], the inhibition at 1 µM lay within 75 to 100%.

On to `N=C(N)c1ccc2cc(C(=O)O)n(Cc3cc(Oc4ccncn4)cc4ccccc34)c2c1` [Compound I-618], for which the inhibition at 1 µM lay within 50 to 75%.

In the case of `N=C(N)c1ccc2cc(C(=O)O)n(Cc3cccc4c(Oc5ccccc5)cccc34)c2c1` [Compound I-730], the inhibition at 1 µM lay within 50 to 75%.

On to `CC(C)OC(=O)NC(=N)c1ccc2cc(C(=O)O)n(Cc3cccc4ccccc34)c2c1` [Compound I-786], for which the inhibition at 1 µM lay within 0 to 25%.

In the case of `N=C(N)c1ccc2cc(C(=O)N[C@H]3CC[C@H](N)CC3)n(Cc3cnoc3-c3ccc(Cl)s3)c2c1` [Compound I-755], the inhibition at 1 µM lay within 25 to 50%.

For `N=C(N)c1ccc2cc(C(=O)O)n(-c3ccc4ccccc4c3)c2c1` [Compound I-654], the inhibition at 1 µM was 0 to 25%.

As for `CS(=O)(=O)N[C@H]1CC[C@H](NC(=O)c2cc3ccc(C(=N)N)cc3n2Cc2cccc3ccccc23)CC1` [Compound I-753], the inhibition at 1 µM was 50 to 75%.

For the compound `N=C(N)c1ccc2cc(C(=O)O)n(Cc3cc(Oc4ccccc4)cc4ccccc34)c2c1` [Compound I-746], the inhibition at 1 µM is 50 to 75%.

With `N=C(N)c1ccc2cc(C(=O)N[C@H]3CC[C@H](N)CC3)n(Cc3cccc4c(OCc5ccccc5)cccc34)c2c1` [Compound I-769], the inhibition at 1 µM lay in the range of 75 to 100%.

Take `CCCCCCOC(=O)NC(=N)c1ccc2cc(C(=O)O)n(Cc3cccc4ccccc34)c2c1` [Compound I-720, Potassium 6-(N-((hexyloxy)carbonyl)carbamimidoyl)-1-(naphthalen-1-ylmethyl)-1H-indole-2-carboxylate]: the inhibition at 1 µM lay in the range of 0 to 25%.

Take `N/C(=N\O)c1ccc2c(c1)cc(C(=O)O)n2Cc1cccc2ccccc12` [Compound I-660]: the inhibition at 1 µM was in the range of 0 to 25%.

The experiment is the same for the next values; noted with them: 1 uM compound; Assay Used = B; read-out: Mar-2 % inhibition at 1 uM.
For `CCOC(=O)NC(=N)c1ccc2cc(C(=O)NC3CCN(C)CC3)n(Cc3cc(Oc4ncccn4)cc4ccccc34)c2c1` [Compound I-549], the inhibition at 1 µM was in the range of 25 to 50%.

Take `CN1CCN(C(=O)c2cc3ccc(C(=N)N)cc3n2Cc2cccc3ccccc23)CC1` [Compound I-443]: the inhibition at 1 µM lay within 0 to 25%.

In the case of `CC(C)(C)OC(=O)N[C@H]1CC[C@H](NC(=O)c2cn(Cc3cccc4ccccc34)c3cc(C(=N)N)ccc23)CC1` [Compound I-518, tert-butyl ((1r,4r)-4-(6-carbamimidoyl-1-(naphthalen-1-ylmethyl)-1H-indole-3-carboxamido)cyclohexyl) carbamate], the inhibition at 1 µM is 0 to 25%.

In the case of `N=C(N)c1ccc2cc(C(=O)O)n(Cc3cc(Oc4ncc(F)cn4)cc4ccccc34)c2c1` [Compound I-571], the inhibition at 1 µM lay in the range of 50 to 75%.

As to `CCNC(=N)c1ccc2cc(C(=O)N[C@H]3CC[C@H](NC(=O)OC(C)(C)C)CC3)n(Cc3ccc4ccccc4c3)c2c1` [Compound I-411, Tert-butyl ((1r,4r)-4-(6-(N-ethylcarbamimidoyl)-1-(naphthalen-2-ylmethyl)-1H-indole-2-carboxamido)cyclohexyl)carbamate], the inhibition at 1 µM was in the range of 0 to 25%.

As for `CC(C)(C)OC(=O)N[C@H]1CC[C@H](NC(=O)c2cc3ccc(C(=N)N)cc3n2CCc2ccc3ccccc3c2)CC1` [Compound I-405], the inhibition at 1 µM is 25 to 50%.

With `CNC(=N)c1ccc2cc(C(=O)N[C@H]3CC[C@H](N)CC3)n(Cc3ccc4ccccc4c3)c2c1` [Compound I-414], the inhibition at 1 µM fell in the range of 0 to 25%.

With `CC(C)(C)OC(=O)NC(=N)c1ccc2cc(C(=O)NC3CCCN(C(=O)OC(C)(C)C)C3)n(Cc3cccc4ccccc34)c2c1` (stereo not drawn) [Compound I-427], the inhibition at 1 µM fell in the range of 0 to 25%.

With `N=C(N)c1ccc2c(C(=O)N[C@H]3CC[C@H](N)CC3)cn(Cc3cccc4ccccc34)c2c1` [Compound I-519, N-((1r,4r)-4-aminocyclohexyl)-6-carbamimidoyl-1-(naphthalen-1-ylmethyl)-1H-indole-3-carboxamide], the inhibition at 1 µM lay within 0 to 25%.

As for `N=C(N)c1ccc2cc(-c3nnc([C@H]4CC[C@H](N)CC4)o3)n(Cc3cccc4ccccc34)c2c1` [Compound I-525, 2-(5-((1r,4r)-4-aminocyclohexyl)-1,3,4-oxadiazol-2-yl)-1-(naphthalen-1-ylmethyl)-1H-indole-6-carboximidamide], the inhibition at 1 µM was 75 to 100%.

As to `N=C(N)c1ccc2cc(-c3nc4c(s3)CCC(N)C4)n(Cc3cccc4ccccc34)c2c1` (stereo not drawn) [Compound I-528, 2-(5-amino-4,5,6,7-tetrahydrobenzo[d]thiazol-2-yl)-1-(naphthalen-1-ylmethyl)-1H-indole-6-carboximidamide], the inhibition at 1 µM lay within 25 to 50%.

`N=C(N)c1ccc2cc(S(=O)(=O)N(Cc3cccc4ccccc34)[C@H]3CC[C@H](N)CC3)n(Cc3cccc4ccccc34)c2c1` [Compound I-523]: the inhibition at 1 µM is 0 to 25%.

`N=C(N)c1ccc2cc(C(=O)N[C@@H]3CCNC3)n(Cc3cccc4ccccc34)c2c1` [Compound I-433]: the inhibition at 1 µM fell in the range of 75 to 100%.

With `Cc1ccnc(Oc2cc(Cn3c(C(=O)O)cc4ccc(C(=N)N)cc43)c3ccccc3c2)n1` [Compound I-566], the inhibition at 1 µM fell in the range of 25 to 50%.

As to `N=C(N)c1ccc2c(C(=O)O)c(C(=O)N[C@H]3CC[C@H](N)CC3)n(Cc3cccc4ccccc34)c2c1` [Compound I-512, 2-(((1r,4r)-4-aminocyclohexyl)carbamoyl)-6-carbamimidoyl-1-(naphthalen-1-ylmethyl)-1H-indole-3-carboxylic Acid], the inhibition at 1 µM is 50 to 75%.

Still in this experiment, the particulars now being: at 1 uM; Assay Used = B; read-out: Mar-2 % inhibition at 1 uM.
With `N=C(N)c1ccc2cc(C(=O)N[C@H]3CC[C@H](N)CC3)n(Cc3ccc4ccccc4c3)c2c1` [Compound I-233], the inhibition at 1 µM is 25 to 50%.

The same experiment, now with this note: compound at 1 uM; Assay Used: B; read-out: Mar-2 % inhibition at 1 uM.
For the compound `COC(=O)c1cc2c(Cn3c(C(=O)N[C@H]4CC[C@H](N)CC4)cc4ccc(C(=N)N)cc43)cccc2s1` [Compound I-822], the inhibition at 1 µM fell in the range of 50 to 75%.

As to `N=C(NN)c1ccc2cc(C(=O)N[C@H]3CC[C@H](N)CC3)n(Cc3cccc4ccccc34)c2c1` [Compound I-827, N-((1r,4r)-4-aminocyclohexyl)-6-(hydrazineyl(imino)methyl)-1-(naphthalen-1-ylmethyl)-1H-indole-2-carboxamide], the inhibition at 1 µM was in the range of 25 to 50%.

With `CN(C)CCCOc1ccc2c(Cn3c(C(=O)N[C@H]4CC[C@H](N)CC4)cc4ccc(C(=N)N)cc43)cccc2c1` [Compound I-804, N-((1r,4r)-4-aminocyclohexyl)-6-carbamimidoyl-1-((6-(3-(dimethylamino)propoxy)naphthalen-1-yl)methyl)-1H-indole-2-carboxamide], the inhibition at 1 µM lay within 75 to 100%.

Consider `CCOC(=O)c1cc(Cn2c(C(=O)N[C@H]3CC[C@H](N)CC3)cc3ccc(C(=N)N)cc32)c2ccccc2c1` [Compound I-812], for which the inhibition at 1 µM lay within 75 to 100%.

As for `N=C(N)c1ccc2cc(C(=O)N[C@H]3CC[C@H](N)CC3)n(Cc3ccc(CO)c4ccccc34)c2c1` [Compound I-824], the inhibition at 1 µM was in the range of 75 to 100%.

Regarding `N=C(N)c1ccc2cc(C(=O)OC3CCCCC3)n(Cc3cccc4ccccc34)c2c1` [Compound I-811], the inhibition at 1 µM is 25 to 50%.

The same experiment, now with this note: read-out: Mar-2 % inhibition at 1 uM.
On to `CN1CCC(NC(=O)c2cc3ccc(C(=N)NC(=O)Oc4ccccc4)cc3n2Cc2cc(Oc3ncccn3)cc3ccccc23)CC1` [Compound I-553], for which the inhibition at 1 µM is 0 to 25%.

Values taken from patent US12428415B2, “Matriptase 2 inhibitors and uses thereof” (Disc Medicine, Inc., priority 2018, dated 2025).
